Laboratory results reported in article PMC9905731, “PIN1 and PIN4 inhibition via parvulin impeders Juglone, PiB, ATRA, 6,7,4′-THIF, KPT6566, and EGCG thwarted hepatitis B virus replication” (Frontiers in Microbiology, 2023).

Tested on: HBV cccDNA
Experiment: Chromatin immunoprecipitation (ChIP) in HBV-infected HepG2-hNTCP-C9-PIN4 KD cells
Type: cell-based, hepatitis B virus
Conditions: 20 μM Juglone or PiB, 30 μM ATRA, 6,7,4′-THIF or KPT6566, 40 μM EGCG, vs solvent
Experimental: Chromatin immunoprecipitation (ChIP) was performed in HBV-infected HepG2-hNTCP-C9 PIN1 or PIN4 KD cells to determine the comparative effects of these parvulins on cccDNA (Figure 11D). The chromatins were prepared and immunoprecipitated with IgG or anti-PIN1, HBc, PIN4, acetylated H3 (anti-AcH3), RNA polymerase-II (anti-RNA Pol-II), and histone H3 antibodies and furthermore analyzed by semiquantitative PCR (GeneAmp PCR 2700, Applied Biosystems; [Bichko et al., 1985]; [Saeed et al., 2019], [2021]; [Piracha et al., 2020]). In contrast to endogenous PIN1, the endogenous PIN4 was recruited to HBV cccDNA. Of note, upon PIN1 KD, the recruitment of HBc protein to the cccDNA remains unchanged.
(A–F) HepG2-hNTCP-C9-PIN4 KD cells were mock-infected (lane 1) or HBV infected (lanes 2–3) and treated with solvent (lane 2), or parvulin inhibitors (A) 20 μM Juglone, (B) 20 μM PiB, (C) 30 μM ATRA, (D) 30 μM 6,7,4′-THIF, (E) 30 μM KPT6566, and (F) 40 μM EGCG. The chromatin solutions and ChIP were performed in HBV-infected HepG2-hNTCP-C9-PIN4 KD cells, as described in the “Material and Methods” section and were subjected to immunoprecipitation with normal rabbit polyclonal IgG, anti-PIN1, anti-PIN4, anti-RNA Pol II, anti-acetyl H3, or anti-H3 antibodies. The immunoprecipitated chromatins were analyzed by PCR. The presented data are representative of three independent experiments.
HBV cccDNA synthesis was examined using the protein-free Hirt cccDNA extraction method. Briefly, HBV-infected PIN1 or PIN4 KD cells at approximately 100% confluency were incubated for 10 days, lysed with 10 mM EDTA and 10 mM Tris–HCl [pH 7.5] containing 0.6% SDS-TE buffer, treated for 16 h by adding 5 M NaCl to the final concentration of 1 M, and precipitated by centrifugation for 30 min at 14,500 × g. The supernatants were subjected to multiple phenol extractions (two times) followed by cccDNA extraction via phenol/chloroform. The supernatant containing cccDNA was precipitated by ethanol and furthermore analyzed by Southern blotting. The HBV cccDNA ChIP was performed using cccDNA-specific primers and analyzed by PCR (GeneAmp 2,700, Applied Biosystems), as described previously ([Bichko et al., 1985]; [Piracha et al., 2018], [2020]; [Saeed et al., 2019], [2021]). From the clinical specimens, HBV cccDNA levels were examined, as described previously ([Zhang et al., 2017]), using 251F 5′-GAC TYG TGG TGG ACT TCT C-3′ and 1190R 5′-TCA GCA AAY ACT YGG CA-3′ set of primers.

Row | SMILES | recruitments of endogenous PIN4 and HBc onto HBV cccDNA
1 | O=c1c(-c2ccc(O)cc2)coc2cc(O)c(O)cc12 [6,7,4′-THIF, 6,7-dihydroxy-3-(4-hydroxyphenyl)-4H-chromen-4-one] | reduced
2 | CC1=C(/C=C/C(C)=C/C=C/C(C)=C/C(=O)O)C(C)(C)CCC1 [ATRA, All-trans-retinoic acid] | reduced
3 | O=C(O[C@@H]1Cc2c(O)cc(O)cc2O[C@@H]1c1cc(O)c(O)c(O)c1)c1cc(O)c(O)c(O)c1 [EGCG, Epigallocatechin gallate] | reduced
4 | O=C1C=CC(=O)c2c(O)cccc21 [Juglone, 5-hydroxyl-1,4-naphthoquinone] | reduced
5 | CC(C)(C)c1ccc(S(=O)(=O)N=C2C=C(SCC(=O)O)C(=O)c3ccccc32)cc1 [KPT6566, 2-[[4-[[[4-(1,1-dimethylethyl)phenyl]sulfonyl]imino]-1,4-dihydro-1-oxo-2-naphthalenyl]thio] acetic acid] | reduced
6 | CCOC(=O)CN1C(=O)c2ccc3c4c(ccc(c24)C1=O)C(=O)N(CC(=O)OCC)C3=O [PiB, 1,3,6,8-tetrahydro-1,3,6,8-tetraoxo-benzo [lmn][3,8] phenanthroline-2,7-diacetic acid, 2,7-diethyl ester] | reduced
